Reference: patent US20250353827A1, “INDOLINE DERIVATIVES AS SEROTONERGIC AGENTS USEFUL FOR THE TREATMENT OF DISORDERS RELATED THERETO” (MINDSET PHARMA INC., priority 2022, published 2025)
Several values for one entry are separate records, joined by “and”; a condition that tells them apart may be missing. Equal values may be shown once.

Tests used:
[1] = biological target: T1, human 5-HT2A (h5-HT2A) receptor (Homo sapiens, UniProt P28223); assay: FLIPR assay, human 5-HT2A receptor under agonist mode; assay type: cell-based; details: 5-HT2A (FLIPR); for RFU@10 μM: RFU=Fmax−Fmin; for EC50: read-out: EC50
T1 construct: expressed in transfected cells; cultured under G418 and hygromycin B selection
Procedure: I. Assessment of the Effect of Exemplary Compounds of Formula I Targeting on Human 5-HT2A (h5-HT2A) Receptor Under Agonist Mode
• 1. Cells were cultured in cell culture medium (DMEM containing 10% FBS, 1×penicillin-streptomycin 300 μg/ml G418 and 100 μg/ml hygromycin B) at 37° C., 5% (v/v) CO2. • 2. One day before the assays, the cells were detached using TrypLE™ Express and cells were counted using cell counter. Only cells with >85% viability were used for the assay. • 3. 20000 cells/well were seeded in 30 μl/well culture medium to a 384-well cell plate and cells were incubated overnight at 37° C., 5% (v/v) CO2. • 4. On the assay day, 2×dye solution was prepared following the manual of the FLIPR® Calcium 6 Assay Kit: i. The dye was diluted with assay buffer (20 mM HEPES in 1× HBSS, PH7.4); ii. Probenecid was added to the final concentration of 5 mM; iii. Vortex vigorously for 1-2 minutes. • 5. Medium was removed from cell plate by flicking the cell plate on towel papers. • 6. 10 μl of assay buffer and 10 μl of 2×dye solution was added to each well of the cell plate. • 7. The cell plate was placed on plate shaker, the plate was agitated at 600 rpm for 2 minutes. The plate was incubated at 37° C. for 2 hours followed by additional 15-minute incubation at 25° C. • 8. 3×compound in assay buffer was prepared: a. Reference compounds were diluted to required concentration with DMSO. The compounds were added to a 384-well compound plate; b. Serial dilutions were performed; c. 10 mM test compounds were added to the compound plate, and 3-fold serial dilutions were performed. d. Transfer 60 nl/well of compounds from source plate to a 384-well compound plate (Corning, 3657) by using an Echo; e. Add 20 μl/well assay buffer to the compound plate; f. Mix the plate on plate shaker for 2 mins; • 9. The cell plate, compound plate and tips were put into FLIPR, 10 μl of 3× compound was transferred to the cell plate per well with FLIPR.
• i. The normalized fluorescence reading (RFU) was calculated as shown below, where Fmax and Fmin stand for maximum and minimum of calcium signal during defined time window: RFU=Fmax−Fmin. • ii. Calculate the percentage activation using following equation:
[formula] • Iii. Calculate EC50 by fitting % activation against log of compound concentrations with Hill equation using XLfit.
Exemplary compounds of Formula I were evaluated functionally using FLIPR assay for their effect on h5-HT2A receptor under agonist mode.

[2] = Liver microsomes stability, human; details: for Predicted hepatic CL: human liver microsomes; for Remaining Percentage / CLint scaled at 2 μM / half-life at 2 μM / microsomal CLint at 2 μM: human; for CLint scaled at 2 μM / half-life at 2 μM / microsomal CLint at 2 μM: pooled liver microsomes
Procedure: (§1) The objective of this study was to estimate in vitro metabolic stability of representative compounds of the application in pooled human and male mouse liver microsomes. The concentrations of parent compounds in reaction systems were evaluated by LC-MS/MS for estimating the stability in pooled human and male mouse liver microsomes. The in vitro intrinsic clearances of test compounds were determined as well.
(§2) A master solution in the “Incubation Plate” containing phosphate buffer, ultra-pure H2O, MgCl2 solution and liver microsomes was made according to Table 3. The mixture was pre-warmed at 37° C. water bath for 5 minutes.
(§3) 40 μL of 10 mM NADPH solution was added to each well. The final concentration of NADPH was 1 mM. The negative control samples were prepared by replacing NADPH with 40 μL of ultra-pure H2O. Samples were prepared in duplicate. Negative controls were prepared in singlet.
(§4) The reaction was started with the addition of 4 μL of 200 μM test compounds or control compounds to each master solution to get the final concentration of 2 μM. This study was performed in duplicate.
(§5) Aliquots of 50 μL were taken from the reaction solution at 0, 15, 30, 45 and 60 minutes. The reaction solutions were stopped by the addition of 4 volumes of cold methanol with IS (100 nM alprazolam, 200 nM imipramine, 200 nM labetalol and 2 μM ketoprofen). Samples were centrifuged at 3,220 g for 40 minutes. Aliquot of 90 μL of the supernatant was mixed with 90 μL of ultra-pure H2O and then was used for LC-MS/MS analysis.
(§6) LC/MS analysis was performed for all samples from this study using a Shimadzu liquid chromatograph separation system equipped with degasser DGU-20A5R; solvent delivery unit LC-30AD; system controller SIL-30AC; column oven CTO-30A; CTC Analytics HTC PAL System. Mass spectrometric analysis was performed using a Triple Quad™ 5500 instrument.
(§7) All calculations were carried out using Microsoft Excel. Peak areas were determined from extracted ion chromatograms. The slope value, k, was determined by linear regression of the natural logarithm of the remaining percentage of the parent drug vs. incubation time curve.
(§8) The in vitro half-life (in vitro t1/2) was determined from the slope value:
(§9) Conversion of the in vitro t1/2 (min) into the in vitro intrinsic clearance (in vitro CLint, in μL/min/mg proteins) was done using the following equation (mean of duplicate determinations): […]

[3] = Liver microsomes stability, mouse; details: for CLint scaled at 2 μM / half-life at 2 μM / microsomal CLint at 2 μM: male, microsomes; for CLint scaled at 2 μM / half-life at 2 μM / microsomal CLint at 2 μM / Remaining Percentage: mouse; for Predicted hepatic CL: mouse liver microsomes
Procedure: as §1, §2, §3, §4, §5, §6, §7, §8, §9

[4] = tested on: Male, C57BL/6J mice; assay: Mouse head twitch; assay type: in vivo; details: for head twitches (mean): counted over 1 hr, male C57BL/6J mice
Procedure: The effect of different doses of representative compounds of Formula I were evaluated on head-twitch response (HTR) and other behavioural responses as behavior-based models of psychedelic activity.
Male, C57BL/6J mice (body weight range 20-30 g) were dosed with the appropriate dose of test article, and following a 1-minute pre-treatment time, placed in individual observation chambers. Animals were visually assessed for the incidence head twitches continuously over a 1 hr period. Head twitches were defined as a rapid jerk of the head which was not elicited by an external tactile stimulus (Come and Pickering, Psychopharmacologia, 1967, 11(1): 65-78). Each head twitch was individually counted by a trained observer, and the data was expressed as the mean±SEM of 6-10 mice per group. Mice were used in a single experiment only.
The head twitch response of exemplary compound II-1 (1-30 mg/kg SC) was compared to 5-MeO DMT and psilocybin (FIG. 1, Table 6).

[5] = Liver microsomes stability, rat; details: rat; for CLint scaled at 2 μM / Predicted hepatic CL / half-life at 2 μM / microsomal CLint at 2 μM: liver microsomes

T1 sequence (P28223 whole entry): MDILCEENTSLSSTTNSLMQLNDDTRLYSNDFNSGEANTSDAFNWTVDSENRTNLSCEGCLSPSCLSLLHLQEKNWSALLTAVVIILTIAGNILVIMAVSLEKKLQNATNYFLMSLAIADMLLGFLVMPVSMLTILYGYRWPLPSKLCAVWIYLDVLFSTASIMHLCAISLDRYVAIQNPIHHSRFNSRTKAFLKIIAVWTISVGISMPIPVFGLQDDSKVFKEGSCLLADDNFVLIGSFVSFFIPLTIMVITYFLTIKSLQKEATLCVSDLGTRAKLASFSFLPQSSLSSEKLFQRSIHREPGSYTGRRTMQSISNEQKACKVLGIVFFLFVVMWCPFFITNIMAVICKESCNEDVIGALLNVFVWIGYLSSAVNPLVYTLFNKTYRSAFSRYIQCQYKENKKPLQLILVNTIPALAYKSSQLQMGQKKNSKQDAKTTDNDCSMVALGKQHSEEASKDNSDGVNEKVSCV

COc1ccc2c(c1)C(CCN(C)C)CN2 (stereo not shown) [II-1, 2-(5-Methoxyindolin-3-yl)-N,N-dimethylethan-1-amine]
RFU@10 μM [1]: 1813 and 1180 | EC50 [1]: 202 nM and 274 nM | Predicted hepatic CL [2]: 14.13 mL/min/kg | Remaining Percentage ([2]; With NADPH, 0 min): 100.00% | Remaining Percentage ([2]; With NADPH, 30 min): 65.37% | Remaining Percentage ([2]; With NADPH, 60 min): 34.47% | Remaining Percentage ([2]; Without NADPH, 0 min): 100.00% | Remaining Percentage ([2]; Without NADPH, 30 min): 89.91% | Remaining Percentage ([2]; Without NADPH, 60 min): 83.49% | CLint scaled at 2 μM [2]: 44.5 mL/min/kg | half-life at 2 μM [2]: 39 min | microsomal CLint at 2 μM [2]: 35.5 µL/min/mg | CLint scaled at 2 μM [3]: 368 mL/min/kg | half-life at 2 μM [3]: 16.5 min | microsomal CLint at 2 μM [3]: 84.2 µL/min/mg | Predicted hepatic CL [3]: 72.33 mL/min/kg | Remaining Percentage ([3]; With NADPH, 0 min): 100.00% | Remaining Percentage ([3]; With NADPH, 30 min): 31.98% | Remaining Percentage ([3]; With NADPH, 60 min): 8.00% | Remaining Percentage ([3]; Without NADPH, 0 min): 100.00% | Remaining Percentage ([3]; Without NADPH, 30 min): 117.83% | Remaining Percentage ([3]; Without NADPH, 60 min): 113.85% | head twitches (mean) ([4]; 0.3 mg/kg SC): 3.2 | head twitches (mean) ([4]; 1 mg/kg SC): 3.8 | head twitches (mean) ([4]; 3 mg/kg SC): 3.6 | head twitches (mean) ([4]; 10 mg/kg SC): 2.3 | mice with some 5-HT syndrome associated behaviours ([4]; 30 mg/kg SC, 2/5 mice): 40% | head twitches (mean) ([4]; 30 mg/kg SC): 4.2 | head twitch response (in words) ([4]; SC, dose range as in the sentence): only a modest head twitch response | other behavioural signs (locomotion, core body temperature, 5-HT syndrome) in words ([4]; SC, psilocybin 3 and 10 mg/kg, 5-MeO DMT 3-30 mg/kg, II-1 0.3-30 mg/kg): No overt signs of hypolocomotion or 5-HT syndrome | peak head twitch response ([4]; at 30 mg/kg SC, mean±SEM): 4.2±0.7 twitches | Remaining Percentage ([5]; With NADPH, 0 min): 100.00% | Remaining Percentage ([5]; With NADPH, 30 min): 20.42% | Remaining Percentage ([5]; With NADPH, 60 min): 5.99% | Remaining Percentage ([5]; Without NADPH, 0 min): 100.00% | Remaining Percentage ([5]; Without NADPH, 30 min): 86.92% | Remaining Percentage ([5]; Without NADPH, 60 min): 87.15% | CLint scaled at 2 μM [5]: 168 mL/min/kg | Predicted hepatic CL [5]: 41.56 mL/min/kg | half-life at 2 μM [5]: 14.8 min | microsomal CLint at 2 μM [5]: 93.8 µL/min/mg

CN(C)CCC1CNc2ccc(F)cc21 (stereo not shown) [Compound I-2, 2-(5-Fluoroindolin-3-yl)-N,N-dimethylethan-1-amine]
RFU@10 μM [1]: 622 | EC50 [1]: 107 nM | Predicted hepatic CL [2]: 1.73 mL/min/kg | Remaining Percentage ([2]; With NADPH, 0 min): 100.00% | Remaining Percentage ([2]; With NADPH, 30 min): 111.62% | Remaining Percentage ([2]; With NADPH, 60 min): 95.59% | Remaining Percentage ([2]; Without NADPH, 0 min): 100.00% | Remaining Percentage ([2]; Without NADPH, 30 min): 115.22% | Remaining Percentage ([2]; Without NADPH, 60 min): 108.70% | CLint scaled at 2 μM [2]: 1.89 mL/min/kg | half-life at 2 μM [2]: 921 min | microsomal CLint at 2 μM [2]: 1.5 µL/min/mg | CLint scaled at 2 μM [3]: 163 mL/min/kg | half-life at 2 μM [3]: 37.2 min | microsomal CLint at 2 μM [3]: 37.3 µL/min/mg | Predicted hepatic CL [3]: 57.99 mL/min/kg | Remaining Percentage ([3]; With NADPH, 0 min): 100.00% | Remaining Percentage ([3]; With NADPH, 30 min): 56.32% | Remaining Percentage ([3]; With NADPH, 60 min): 32.69% | Remaining Percentage ([3]; Without NADPH, 0 min): 100.00% | Remaining Percentage ([3]; Without NADPH, 30 min): 108.70% | Remaining Percentage ([3]; Without NADPH, 60 min): 97.83% | Remaining Percentage ([5]; With NADPH, 0 min): 100.00% | Remaining Percentage ([5]; With NADPH, 30 min): 14.82% | Remaining Percentage ([5]; With NADPH, 60 min): 3.66% | Remaining Percentage ([5]; Without NADPH, 0 min): 100.00% | Remaining Percentage ([5]; Without NADPH, 30 min): 106.67% | Remaining Percentage ([5]; Without NADPH, 60 min): 104.17% | CLint scaled at 2 μM [5]: 198 mL/min/kg | Predicted hepatic CL [5]: 43.15 mL/min/kg | half-life at 2 μM [5]: 12.6 min | microsomal CLint at 2 μM [5]: 110 µL/min/mg
